Measured values published in US4056674A, “Derivatives of 3-deazaguanine” (priority 1975, dated 1977).
Converted amounts (≈) assume the structure as drawn. Read-outs that look alike come from different tables or passages of the source.

Key:
virus = conditions: background statement; cited from earlier work
[1] = tested on: viruses causing respiratory diseases such as influenza in man; conditions: background statement; cited from earlier work
leukemia L1210 = assay: Activity against leukemia L1210 in BDF1 female mice; assay type: in vivo; conditions: 40 mg/kg i.p., qd [1-9]
Method: In this example compound 30 was tested for antitumor activity in mice. […] A 10^-5 M concentration of compound 30 caused 50% inhibition of the incorporation of ^3 H-thymidine and ^3 H-uridine into the acidinsoluble fraction of L1210 cells in tissue culture. […] Ara C (cytosine arabinoside) was included as a standard.
All animals were inoculated (i.p) with 10^5 leukemic cells. Treatment
was started 24 hours after transplant. Figures in parenthesis denote 21

[2] = tested on: herpes simplex virus, type 2; assay: In vitro antiviral, inhibition of virus-induced CPE, HSV/2; assay type: cell-based; conditions: KB or RK-13 cells, VR >0.5 significant, <0.5 slight antiviral activity
[3] = tested on: herpes simplex virus, type 1; assay: In vitro antiviral, inhibition of virus-induced CPE, HSV/1; assay type: cell-based; conditions: KB or RK-13 cells, VR >0.5 significant, <0.5 slight antiviral activity
rhinovirus, type 13 = assay: In vitro antiviral, inhibition of virus-induced CPE, RV/13; assay type: cell-based; conditions: KB or RK-13 cells, VR >0.5 significant, <0.5 slight antiviral activity
RV/2: rhinovirus, type 1 = assay: In vitro antiviral, inhibition of virus-induced CPE, RV/2; assay type: cell-based; conditions: KB or RK-13 cells, VR >0.5 significant, <0.5 slight antiviral activity
adenovirus, type 3 = assay: In vitro antiviral, inhibition of virus-induced cytopathogenic effect (CPE), AV/3; assay type: cell-based; conditions: KB or RK-13 cells, VR >0.5 significant, <0.5 slight antiviral activity
[4] = tested on: parainfluenza virus, type 1; assay: In vitro antiviral, inhibition of virus-induced CPE, PIV/1; assay type: cell-based
influenza virus, type Ao = assay: In vitro antiviral, inhibition of virus-induced CPE, IV/Ao; assay type: cell-based; conditions: KB or RK-13 cells, VR >0.5 significant, <0.5 slight antiviral activity
pseudorabies virus = assay type: cell-based; conditions: PRV; KB or RK-13 cells; VR >0.5 significant, <0.5 slight antiviral activity
rhinovirus, type 8 = assay: In vitro antiviral, inhibition of virus-induced CPE, RV/8; assay type: cell-based; conditions: KB or RK-13 cells, VR >0.5 significant, <0.5 slight antiviral activity
rhinovirus, type 56 = assay: In vitro antiviral, inhibition of virus-induced CPE, RV/56; assay type: cell-based; conditions: KB or RK-13 cells, VR >0.5 significant, <0.5 slight antiviral activity
rhinovirus, type 1A = assay: In vitro antiviral, inhibition of virus-induced CPE, RV/1A; assay type: cell-based; conditions: KB or RK-13 cells, VR >0.5 significant, <0.5 slight antiviral activity
[5] = tested on: Parainfluenza virus, type 3; assay: In vitro antiviral, inhibition of virus-induced CPE, PIV/3; assay type: cell-based
vaccinia virus = assay type: cell-based; conditions: VV; KB or RK-13 cells; VR >0.5 significant, <0.5 slight antiviral activity
human cytomegalovirus = assay: In vitro antiviral, inhibition of virus-induced CPE, HCMV; assay type: cell-based; conditions: KB or RK-13 cells, VR >0.5 significant, <0.5 slight antiviral activity
myxoma virus = assay: In vitro antiviral, inhibition of virus-induced CPE, MV; assay type: cell-based; conditions: KB or RK-13 cells, VR >0.5 significant, <0.5 slight antiviral activity
Method: In this example, compounds 3, 4, 13, 16, 20, 22, 29 and 30 were tested to determine their in vitro antiviral efficacy, using the inhibition virus-induced cytopathogenic effect (CPE) method of Sidwell, et al. (Applied Microbiology 22:797-801, 1971). Briefly, the CPE procedure includes the suspension of the antiviral agent in a cell culture medium consisting of vitamins, amino acids, serum, buffer, penicillin, streptomycin and indicator dye in water. The virus suspended in the cell culture medium was added to an established monolayer of KB cells or RK-13 cells, and an equal volume of the antiviral agent was then added within 15 minutes. The infected treated cells were graded following microscopic examination. Controls for each experiment include cell controls cells and cell culture medium only), virus controls (cell and virus cell culture medium) and toxicity controls (cells and chemical and cell culture medium).
The virus rating (VR) system of Sidwell et al., described in Applied Microbiology, supra, was used to evaluate the degree of significance of CPE inhibition.

[6] = tested on: vesicular stomatitis virus; assay type: cell-based; conditions: VSV; KB or RK-13 cells; VR >0.5 significant, <0.5 slight antiviral activity
Escherichia Coli = assay: In vivo antibacterial activity, survival of mice after intraperitoneal challenge with Escherichia coli 138; design: species or system white mice (ICR, COX 17 to 20 g); conditions: 7 days
Method: In this example compounds 7 and 23 were tested along with, as a comparison, the known antibiotic Gentamycin, to determine their in vivo antibacterial activity. Experimental infections were produced in groups of 20 white mice (ICR, COX 17 to 20 g).
*Ec 138: Tetracycline and Streptomycin
**The LD50 is the challenge that killed 50% of the infected mice; th
LD50 values for the pathogen were calculated by the method of Probit

Providence = assay: In vitro antibacterial, broth dilution assay, Providence; assay type: cell-based; conditions: clinical isolates, 24 hr at 35°
Method: (§1) In this example compounds 7 and 30 were tested to determine their in vitro antibacterial activity. Clinical isolates of pathogens were used for this example. In vitro sensitivity of these organisms were quantitatively determined by broth dilution assay. Serial dilutions were prepared in chemically defined medium in a range from 100 to 0.01 μg/ml. The minimal Inhibitory Concentration (MIC) was recorded as the highest dilution of compound which prevented visible growth of the pathogen following 24 hr incubation at 35°.

Salmonella = assay: In vitro antibacterial, broth dilution assay, Salmonella; assay type: cell-based; conditions: clinical isolates, 24 hr at 35°
Method: as §1

Citrobacter = assay: In vitro antibacterial, broth dilution assay, Citrobacter; assay type: cell-based; conditions: clinical isolates, 24 hr at 35°
Method: as §1

Klebsiella = assay: In vitro antibacterial, broth dilution assay, Klebsiella; assay type: cell-based; conditions: clinical isolates, 24 hr at 35°
Method: as §1

Shigella = assay: In vitro antibacterial, broth dilution assay, Shigella; assay type: cell-based; conditions: clinical isolates, 24 hr at 35°
Method: as §1

Serratia = assay: In vitro antibacterial, broth dilution assay, Serratia; assay type: cell-based; conditions: clinical isolates, 24 hr at 35°
Method: as §1

Proteus = assay: In vitro antibacterial, broth dilution assay, Proteus; assay type: cell-based; conditions: Proteus; clinical isolates; 24 hr at 35°; read-out: Average MIC
Method: as §1

Pseudomonas = assay: In vitro antibacterial, broth dilution assay, Pseudomonas; assay type: cell-based; conditions: clinical isolates, 24 hr at 35°
Method: as §1

Escherichis = assay: In vitro antibacterial, broth dilution assay, Escherichia; assay type: cell-based; conditions: Escherichis; clinical isolates; 24 hr at 35°; read-out: Average MIC
Method: as §1

Enterobacter = assay: In vitro antibacterial, broth dilution assay, Enterobacter; assay type: cell-based; conditions: clinical isolates, 24 hr at 35°
Method: as §1

## NC(=O)c1nc[nH]n1 [1,2,4-triazole-3-carboxamide]
virus
  antiviral activity: significant antiviral activity

## NC(=S)c1nc[nH]n1 [1,2,4-triazole-3thiocarboxamide]
virus
  antiviral activity: significant antiviral activity

## NC(=O)c1ncn([C@@H]2O[C@H](CO)[C@@H](O)[C@H]2O)n1 [1-β-D-ribofuranosyl-1,2,4-triazole-3-carboxamide]
[1]
  activity against respiratory disease viruses: active against these respiratory disease viruses

## Nc1ccn([C@@H]2O[C@H](CO)[C@@H](O)[C@@H]2O)c(=O)n1 [Ara C, 1-β-D-arabinofuranosylcytosine, reference compound]
Leukemia L1210
  21 day survivors: 0/6
  Average Mean Survival: 17.33 days
  T/C: 2.11
  ΔWt.: -0.2 g
[1]
  activity against respiratory disease viruses: only active against a limited spectrum of viruses which does not include those causing respiratory diseases

## N#CCc1c(C(N)=O)ncn1[C@@H]1O[C@H](CO)[C@@H](O)[C@H]1O [Compound 3, 5-Cyanomethyl-1-β-D-ribofuranosylimidazole-4-carboxamide]
[2]
  Virus rating (VR): 1.3
[3]
  Virus rating (VR): 0.6

## Nc1cc2c(ncn2[C@@H]2O[C@H](CO)[C@@H](O)[C@H]2O)c(=O)[nH]1 [Compound 4, 6-Amino-1-β-D-ribofuranosylimidazo[4,5-c]pyridin-4(5H)-one]
rhinovirus, type 13
  Virus rating (VR): 1.0
RV/2: rhinovirus, type 1
  Virus rating (VR): 1.2
adenovirus, type 3
  Virus rating (VR): 0.8
[4]; PIV/1, KB or RK-13 cells, VR >0.5 significant, <0.5 slight antiviral activity
  Virus rating (VR): 0.6
Influenza virus, type Ao
  Virus rating (VR): 0.1
Pseudorabies virus
  Virus rating (VR): 0.3
rhinovirus, type 8
  Virus rating (VR): 1.2
rhinovirus, type 56
  Virus rating (VR): 0.7
rhinovirus, type 1A
  Virus rating (VR): 0.1
[5]; PIV/3, KB or RK-13 cells, VR >0.5 significant, <0.5 slight antiviral activity
  Virus rating (VR): 0.6
Vaccinia virus
  Virus rating (VR): 0.6
Human cytomegalovirus
  Virus rating (VR): 0.5
[3]
  Virus rating (VR): 0.9
Myxoma virus
  Virus rating (VR): 1.0
[6]
  Virus rating (VR): 1.1

## Nc1cc2ncn([C@@H]3O[C@H](CO)[C@@H](O)[C@H]3O)c2c(=O)[nH]1 [Compound 7, 6-amino-3-β-D-ribofuranosylimidazo[4,5-c]pyridin-4(5H)one]
Escherichia Coli; challenge 1 LD50, 50 mg/kg × 2, oral
  % survival: 100%
Escherichia Coli; challenge 10 LD50's, 50 mg/kg × 2, oral
  % survival: 100%
Escherichia Coli; challenge 100 LD50's, 50 mg/kg × 2, oral
  % survival: 100%
Escherichia Coli; challenge 1000 LD50's, 50 mg/kg × 2, oral
  % survival: 90%
Escherichia Coli; challenge 10,000 LD50's, 50 mg/kg × 2, oral
  % survival: 75%
Providence
  MIC: 15 µg/mL (≈ 53.1 µM)
Salmonella
  MIC: 5 µg/mL (≈ 17.7 µM)
Citrobacter
  MIC: 5 µg/mL (≈ 17.7 µM)
Klebsiella
  MIC: 8 µg/mL (≈ 28.3 µM)
Shigella
  MIC: 100 µg/mL (≈ 354 µM)
Serratia
  MIC: 5 µg/mL (≈ 17.7 µM)
Proteus
  MIC: 10 µg/mL (≈ 35.4 µM)
Pseudomonas
  MIC: 100 µg/mL (≈ 354 µM)
Escherichis
  MIC: 0.5 µg/mL (≈ 1.77 µM)
Enterobacter
  MIC: 10 µg/mL (≈ 35.4 µM)

## Nc1cc2ncn(C3CCCCO3)c2c(=O)[nH]1 (stereo not drawn) [Compound 13, 6-Amino-3-(tetrahydropyran-2-yl)imidazo[4,5-c]pyridin-4(5H)-one]
[3]
  Virus rating (VR): 0.8

## C[C@H]1O[C@@H](n2cnc3c(=O)[nH]c(N)cc32)[C@H](O)[C@@H]1O [Compound 16, 6-Amino-1-(5-deoxy-β-D-ribofuranosyl)imidazo[4,5-c]pyridine-4(5H)-one]
[3]
  Virus rating (VR): 0.9

## N#CCc1c(C(N)=O)ncn1[C@@H]1O[C@H](COP(=O)(O)O)[C@@H](O)[C@H]1O [Compound 20, 5-Cyanomethyl-1-β-D-ribofuranosylimidazole-4-carboxamide 5'-phosphate]
[2]
  Virus rating (VR): 0.5
Vaccinia virus
  Virus rating (VR): 0.3
[3]
  Virus rating (VR): 0.8

## Nc1cc2c(ncn2[C@@H]2O[C@H](COP(=O)(O)O)[C@@H](O)[C@H]2O)c(=O)[nH]1 [Compound 22, 6-Amino-1-β-D-ribofuranosylimidazo[4,5-c]pyridin-4(5H)-one 5'-phosphate]
rhinovirus, type 13
  Virus rating (VR): 0.9
[2]
  Virus rating (VR): 1.0
[4]
  Virus rating (VR): 0.3
[5]
  Virus rating (VR): 0.8
Vaccinia virus
  Virus rating (VR): 0.7
[3]
  Virus rating (VR): 0.9

## Nc1cc2ncn([C@@H]3O[C@H](COP(=O)(O)O)[C@@H](O)[C@H]3O)c2c(=O)[nH]1 [Compound 23, 6-Amino-3-β-D-ribofuranosylimidazo[4,5-c]pyridin-4(5H)-one-5'-phosphate]
Escherichia Coli; challenge 1000 LD50's, 100 mg/kg × 1, oral
  % survival: 100%

## N#CCc1[nH]cnc1C(N)=O [Compound 29, 4(5)-Cyanomethylimidazole-5(4)-carboxamide]
rhinovirus, type 13
  Virus rating (VR): 0.6
adenovirus, type 3
  Virus rating (VR): 0.8
[5]
  Virus rating (VR): 0.5
[3]
  Virus rating (VR): 0.9

## O=c1[nH]c(=O)n([C@H]2C[C@H](O)[C@@H](CO)O2)cc1I [IDU, 5-iodo-2' -deoxyuridine]
[1]
  activity against respiratory disease viruses: only active against a limited spectrum of viruses which does not include those causing respiratory diseases

## Nc1ncnc2c1ncn2[C@@H]1O[C@H](CO)[C@@H](O)[C@@H]1O [ara-A, 9-β-D-arabino furanosyladenine]
[1]
  activity against respiratory disease viruses: only active against a limited spectrum of viruses which does not include those causing respiratory diseases

## Gentamycin [reference compound]
Escherichia Coli; challenge 1 LD50, 1 mg/kg × 2, SC
  % survival: 100%
Escherichia Coli; challenge 10 LD50's, 1 mg/kg × 2, SC
  % survival: 100%
Escherichia Coli; challenge 100 LD50's, 1 mg/kg × 2, SC
  % survival: 90%
Escherichia Coli; challenge 1000 LD50's, 1 mg/kg × 2, SC
  % survival: 80%
Escherichia Coli; challenge 10,000 LD50's, 1 mg/kg × 2, SC
  % survival: 60%
